#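 Cultured in 96-well plates, cells were exposed to test compound for 48 hours across five concentrations. GI50 = concentration required for 50% inhibition of growth.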 Activity calls are given as the source filed them. Rule as the data show it: active = GI50 up to about 1.1 µM and inactive = higher.
# What was measured:
# Experiment in all cases: NCI anticancer screen, dose series, 48 h
# SF-295 = system: SF-295
# NCI/ADR-RES = system: NCI/ADR-RES
# UO-31 = system: UO-31
# SK-MEL-5 = system: SK-MEL-5
# SNB-19 = system: SNB-19
# 786-0 = system: 786-0
# SK-OV-3 = system: SK-OV-3
# Hs-578T = system: Hs-578T
# OVCAR-5 = system: OVCAR-5
# RXF 393 = system: RXF 393
# HL-60 = system: HL-60
# OVCAR-8 = system: OVCAR-8
# SK-MEL-28 = system: SK-MEL-28
# HOP-62 = system: HOP-62
# U-251 = system: U-251
# RPMI-8226 = system: RPMI-8226
# M14 = system: M14
# OVCAR-3 = system: OVCAR-3
# SW-620 = system: SW-620
# HOP-92 = system: HOP-92
# DU-145 = system: DU-145
# KM12 = system: KM12
# TK-10 = system: TK-10
# HCT-116 = system: HCT-116
# CCRF-CEM = system: CCRF-CEM
# SNB-75 = system: SNB-75
# MOLT-4 = system: MOLT-4
# UACC-257 = system: UACC-257
# HCT-15 = system: HCT-15
# MCF7 = system: MCF7
# SN12C = system: SN12C
# BT-549 = system: BT-549
# A498 = system: A498
# MDA-MB-231 = system: MDA-MB-231
# LOX IMVI = system: LOX IMVI
# A549 = system: A549
# K562 = system: K562
# SF-268 = system: SF-268
# ACHN = system: ACHN
# OVCAR-4 = system: OVCAR-4
# COLO 205 = system: COLO 205
# NCI-H226 = system: NCI-H226
# MDA-N = system: MDA-N
# NCI-H23 = system: NCI-H23
# Malme-3M = system: Malme-3M
# IGROV-1 = system: IGROV-1
# SF-539 = system: SF-539
# PC-3 = system: PC-3
# UACC-62 = system: UACC-62
# NCI-H460 = system: NCI-H460
# SR = system: SR
# EKVX = system: EKVX
# SK-MEL-2 = system: SK-MEL-2
# MDA-MB-435 = system: MDA-MB-435
# T47D = system: T47D
# HT-29 = system: HT-29
# CAKI-1 = system: CAKI-1
# NCI-H522 = system: NCI-H522
# HCC 2998 = system: HCC 2998
structure (smiles),measurement,setting,value
COc1ccc(C2SC(=N)Nc3c2c(C)nn3C(=O)c2ccncc2)cc1 (stereo unspecified),GI50,SF-295,> 100 µM (inactive)
same,GI50,NCI/ADR-RES,> 100 µM (inactive)
same,GI50,UO-31,> 100 µM (inactive)
same,GI50,SK-MEL-5,45.7 µM (inactive)
same,GI50,SNB-19,> 100 µM (inactive)
same,GI50,786-0,> 100 µM (inactive)
same,GI50,SK-OV-3,> 100 µM (inactive)
same,GI50,Hs-578T,> 100 µM (inactive)
same,GI50,OVCAR-5,> 100 µM (inactive)
same,GI50,RXF 393,> 100 µM (inactive)
same,GI50,HL-60,87.1 µM (inactive)
same,GI50,OVCAR-8,> 100 µM (inactive)
same,GI50,SK-MEL-28,> 100 µM (inactive)
same,GI50,HOP-62,> 100 µM (inactive)
same,GI50,U-251,> 100 µM (inactive)
same,GI50,RPMI-8226,57.3 µM (inactive)
same,GI50,M14,> 100 µM (inactive)
same,GI50,OVCAR-3,40.4 µM (inactive)
same,GI50,SW-620,> 100 µM (inactive)
same,GI50,HOP-92,> 100 µM (inactive)
same,GI50,DU-145,> 100 µM (inactive)
same,GI50,KM12,> 100 µM (inactive)
same,GI50,TK-10,> 100 µM (inactive)
same,GI50,HCT-116,> 100 µM (inactive)
same,GI50,CCRF-CEM,29.4 µM (inactive)
same,GI50,SNB-75,> 100 µM (inactive)
same,GI50,MOLT-4,44.5 µM (inactive)
same,GI50,UACC-257,> 100 µM (inactive)
same,GI50,HCT-15,> 100 µM
same,GI50,MCF7,75.2 µM (inactive)
same,GI50,SN12C,> 100 µM (inactive)
same,GI50,BT-549,> 100 µM (inactive)
same,GI50,A498,98.4 µM (inactive)
same,GI50,MDA-MB-231,> 100 µM (inactive)
same,GI50,LOX IMVI,> 100 µM (inactive)
same,GI50,A549,> 100 µM (inactive)
same,GI50,K562,64.7 µM (inactive)
same,GI50,SF-268,> 100 µM (inactive)
same,GI50,ACHN,> 100 µM (inactive)
same,GI50,OVCAR-4,43.3 µM (inactive)
same,GI50,COLO 205,57.7 µM (inactive)
same,GI50,NCI-H226,> 100 µM (inactive)
same,GI50,MDA-N,> 100 µM (inactive)
same,GI50,NCI-H23,> 100 µM (inactive)
same,GI50,Malme-3M,> 100 µM (inactive)
same,GI50,IGROV-1,89.5 µM (inactive)
same,GI50,SF-539,> 100 µM (inactive)
same,GI50,PC-3,> 100 µM (inactive)
same,GI50,UACC-62,> 100 µM (inactive)
same,GI50,NCI-H460,42.3 µM (inactive)
same,GI50,SR,21.2 µM (inactive)
same,GI50,EKVX,> 100 µM (inactive)
same,GI50,SK-MEL-2,> 100 µM (inactive)
same,GI50,MDA-MB-435,70.6 µM (inactive)
same,GI50,T47D,45.5 µM (inactive)
same,GI50,HT-29,> 100 µM (inactive)
CNc1ncnc2c1cnn2Cc1cn(CCCCO)nn1,GI50,SF-295,> 100 µM (inactive)
same,GI50,NCI/ADR-RES,> 100 µM (inactive)
same,GI50,UO-31,> 100 µM (inactive)
same,GI50,SK-MEL-5,> 100 µM (inactive)
same,GI50,SNB-19,> 100 µM (inactive)
same,GI50,786-0,> 100 µM (inactive)
same,GI50,SK-OV-3,> 100 µM (inactive)
same,GI50,CAKI-1,> 100 µM (inactive)
same,GI50,Hs-578T,> 100 µM (inactive)
same,GI50,OVCAR-5,> 100 µM (inactive)
same,GI50,RXF 393,> 100 µM (inactive)
same,GI50,OVCAR-8,> 100 µM (inactive)
same,GI50,SK-MEL-28,> 100 µM (inactive)
same,GI50,HOP-62,> 100 µM (inactive)
same,GI50,NCI-H522,> 100 µM (inactive)
same,GI50,U-251,> 100 µM (inactive)
same,GI50,RPMI-8226,> 100 µM (inactive)
same,GI50,M14,> 100 µM (inactive)
same,GI50,OVCAR-3,> 100 µM (inactive)
same,GI50,SW-620,> 100 µM (inactive)
same,GI50,HOP-92,> 100 µM (inactive)
same,GI50,DU-145,> 100 µM (inactive)
same,GI50,KM12,> 100 µM (inactive)
same,GI50,TK-10,> 100 µM (inactive)
same,GI50,HCT-116,> 100 µM (inactive)
same,GI50,CCRF-CEM,> 100 µM (inactive)
same,GI50,MOLT-4,> 100 µM (inactive)
same,GI50,UACC-257,> 100 µM (inactive)
same,GI50,HCT-15,> 100 µM
same,GI50,MCF7,> 100 µM (inactive)
same,GI50,SN12C,> 100 µM (inactive)
same,GI50,BT-549,> 100 µM (inactive)
same,GI50,A498,> 100 µM (inactive)
same,GI50,MDA-MB-231,> 100 µM (inactive)
same,GI50,LOX IMVI,> 100 µM (inactive)
same,GI50,HCC 2998,> 100 µM (inactive)
same,GI50,A549,> 100 µM (inactive)
same,GI50,K562,> 100 µM (inactive)
same,GI50,SF-268,> 100 µM (inactive)
same,GI50,ACHN,> 100 µM (inactive)
same,GI50,OVCAR-4,> 100 µM (inactive)
same,GI50,COLO 205,> 100 µM (inactive)
same,GI50,NCI-H226,> 100 µM (inactive)
same,GI50,MDA-N,> 100 µM (inactive)
same,GI50,NCI-H23,> 100 µM (inactive)
same,GI50,Malme-3M,> 100 µM (inactive)
same,GI50,IGROV-1,> 100 µM (inactive)
same,GI50,SF-539,> 100 µM (inactive)
same,GI50,PC-3,> 100 µM (inactive)
same,GI50,UACC-62,> 100 µM (inactive)
same,GI50,NCI-H460,> 100 µM (inactive)
same,GI50,SR,> 100 µM (inactive)
same,GI50,EKVX,> 100 µM (inactive)
same,GI50,SK-MEL-2,> 100 µM (inactive)
same,GI50,MDA-MB-435,> 100 µM (inactive)
same,GI50,T47D,> 100 µM (inactive)
same,GI50,HT-29,> 100 µM (inactive)
COc1cc(/C=C2/CCS(=O)(=O)c3ccc(C)cc3C2=O)cc(OC)c1OC,GI50,SF-295,14.1 µM (inactive)
same,GI50,NCI/ADR-RES,3.14 µM (inactive)
same,GI50,UO-31,5.75 µM (inactive)
same,GI50,SK-MEL-5,2.53 µM (inactive)
same,GI50,SNB-19,4.1 µM (inactive)
same,GI50,786-0,3.3 µM (inactive)
same,GI50,SK-OV-3,7.35 µM (inactive)
same,GI50,CAKI-1,4.65 µM (inactive)
same,GI50,Hs-578T,4.73 µM (inactive)
same,GI50,OVCAR-5,5.87 µM (inactive)
same,GI50,HL-60,1.41 µM (inactive)
same,GI50,OVCAR-8,2.7 µM (inactive)
same,GI50,SK-MEL-28,3.59 µM (inactive)
same,GI50,HOP-62,6.04 µM (inactive)
same,GI50,NCI-H522,3.39 µM (inactive)
same,GI50,U-251,4.14 µM (inactive)
same,GI50,RPMI-8226,2.65 µM (inactive)
same,GI50,M14,5.33 µM (inactive)
same,GI50,OVCAR-3,5.5 µM (inactive)
same,GI50,SW-620,4.76 µM (inactive)
same,GI50,HOP-92,4.18 µM (inactive)
same,GI50,DU-145,3.48 µM (inactive)
same,GI50,KM12,4.54 µM (inactive)
same,GI50,TK-10,5.37 µM (inactive)
same,GI50,HCT-116,2.95 µM (inactive)
same,GI50,CCRF-CEM,2.85 µM (inactive)
same,GI50,SNB-75,5.27 µM (inactive)
same,GI50,MOLT-4,3.62 µM (inactive)
same,GI50,UACC-257,4.15 µM (inactive)
same,GI50,HCT-15,4.59 µM
same,GI50,MCF7,4.19 µM (inactive)
same,GI50,SN12C,3.66 µM (inactive)
same,GI50,BT-549,3.52 µM (inactive)
same,GI50,A498,5.78 µM (inactive)
same,GI50,MDA-MB-231,3.58 µM (inactive)
same,GI50,LOX IMVI,2.61 µM (inactive)
same,GI50,HCC 2998,4.34 µM (inactive)
same,GI50,A549,4.88 µM (inactive)
same,GI50,K562,2.06 µM (inactive)
same,GI50,SF-268,4.49 µM (inactive)
same,GI50,ACHN,3.66 µM (inactive)
same,GI50,OVCAR-4,9.38 µM (inactive)
same,GI50,COLO 205,4.85 µM (inactive)
same,GI50,NCI-H226,6.34 µM (inactive)
same,GI50,MDA-N,4.29 µM (inactive)
same,GI50,NCI-H23,3.64 µM (inactive)
same,GI50,Malme-3M,3.63 µM (inactive)
same,GI50,IGROV-1,4.06 µM (inactive)
same,GI50,SF-539,2.59 µM (inactive)
same,GI50,PC-3,6.73 µM (inactive)
same,GI50,UACC-62,4.12 µM (inactive)
same,GI50,NCI-H460,3.23 µM (inactive)
same,GI50,SR,2.32 µM (inactive)
same,GI50,EKVX,12.1 µM (inactive)
same,GI50,SK-MEL-2,9.75 µM (inactive)
same,GI50,MDA-MB-435,3.79 µM (inactive)
same,GI50,T47D,3.6 µM (inactive)
same,GI50,HT-29,3.92 µM (inactive)

# Source: ChEMBL document CHEMBL1201862, “PubChem BioAssay data set” (2004)
